Assay results published in article PMC6385854, “Structural insights reveal a recognition feature for tailoring hydrocarbon stapled-peptides against the eukaryotic translation initiation factor 4E protein” (Chemical Science, 2019).
Read-outs that look alike come from different tables or passages of the source. Numbered stars: 1 amine (or outer) side, 2 acyl side, 3 side chain; on linkers, the order of the positions; unused ones are H or OH. Bridge positions count the residues as written; N and C are the ends. Square brackets hold non-standard residues; d marks the D form. Peptide text beside a SMILES is read from it. ξ: configuration not given here. ξαMeNle(6-ylidene) = CC(CCCC=[*:3])(N[*:1])C(=O)[*:2]; R5 = C=CCCC[C@@](C)(N)C(=O)O; S5 = C=CCCC[C@](C)(N)C(=O)O

Key:
[1] = biological target: T1, Human recombinant eIF4E protein (Homo sapiens, UniProt P06730); test: Surface plasmon resonance binding of stapled-peptides to immobilized eIF4E; conditions: SPR; for kon: eIF4E (His tag or w/o tag) amine-coupled on CM5 chip, saturated with m7GTP, peptides 3 μM to 1.372 nM, 60 s injection, 120 s dissociation
T1 construct: V28-V217; made in house; host or cells: Escherichia coli BL21 (DE3)
T1 sequence (P06730 28-217): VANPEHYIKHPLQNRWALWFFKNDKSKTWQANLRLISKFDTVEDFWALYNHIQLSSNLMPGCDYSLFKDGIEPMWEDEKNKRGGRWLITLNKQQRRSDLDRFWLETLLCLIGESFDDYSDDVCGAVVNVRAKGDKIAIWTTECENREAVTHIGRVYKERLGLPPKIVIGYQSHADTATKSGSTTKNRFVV
Method: Human recombinant eIF4E protein with His tag (eIF4E-His) and without tag (eIF4E w/o tag) were separately immobilized on a CM5 sensor chip through amine coupling using the same protocol. Each flow cell of a CM5 sensor chip was first activated by a 7 min injection (10 μl min^–1) of freshly prepared 1 : 1 50 mM NHS : 200 mM EDC. Diluted eIF4E in NaAc (pH 5.0), with m^7GTP present in ≥2 : 1 ratio to saturate eIF4E, was injected over the sensor chip surface at a flow rate of 10 μl min^–1. The remaining active coupling sites were blocked with a 7 min injection of 1 M ethanolamine at 10 μl min^–1. The immobilization level is ∼2500 RU for eIF4E w/o tag and ∼5000 RU for eIF4E-His separately. Running buffer for immobilization was HBS-EP+ (10 mM HEPES, 150 mM NaCl, 3 mM EDTA, 0.05% surfactant P20).
Before measurement, the system was primed with assay running buffer HBS-EP+ (10 mM HEPES, 150 mM NaCl, 3 mM EDTA, 0.05% surfactant P20), with 1 mM DTT and 3% DMSO. Peptides were prepared by 3-fold dilution from high concentration to low concentration (3 μM to 1.372 nM). Peptides at increasing concentrations were injected over the chip surface for 60 s. The exposure was followed by a dissociation phase of 120 s. The flow rate was 30 μl min^–1. Surface regeneration was done using 2 M NaCl 30 s at 30 μl min^–1. Each reaction cycle ended with 50% DMSO extra wash. The solvent correction curve was setup by adding varying amounts of 100% DMSO to 1.03× running buffer to generate a range of DMSO solutions (2.000%, 2.286%, 2.571%, 2.857%, 3.143%, 3.429%, 3.714% and 4.000% respectively). After removing reference (blank buffer) signal and adding solvent correction, kinetics and/or steady-state parameters were calculated with Biacore T200 evaluation software ver. 3.0.

[2] = system: eIF4E; conditions: small molecule inhibitor of the eIF4E/eIF4G interaction; cited from earlier work
Description: We have previously used structure-based rational design and optimization strategies to develop the first generation of hydrocarbon stapled-peptides against eIF4E.[20] These are the only compounds currently reported in the literature that are able to bind to the protein-binding interface of eIF4E with nanomolar affinity. […] Moreover, it was recently shown that 4EGI-1 binds to a non-canonical site on eIF4E and allosterically regulates the binding prop ... || The previously optimized 12mer stapled-peptide (sTIP-04: ^1KKRYSR*QLL*L^12)[20] (Fig. 1) was used as a template for the derivation of two different i, i + 4 hydrocarbon stapled-peptides: (i) (sTIP-05: ^1KKRYSR*QLL*F^12) with an L12F substitution at the C-terminus and, (ii) (sTIP-06: ^1RIIYSR*QLL*L^12) with an “RII^3” substitution at the N-terminus, based on the 4EBP protein epitope.[12] These derivatives were designed to incorporate different chemical features with the anticipation to induce favorable cellular activity. Both peptides were synthesized and their binding affinity for eIF4E was de ...

[3] = Biacore T200, HBS-EP+ with 1 mM DTT, 3% DMSO, mean ± SEM from at-least two independent experiments, SEM, read-out: k on
[4] = Biacore T200, eIF4E on CM5 chip, m7GTP, HBS-EP+ with 1 mM DTT, 3% DMSO, mean ± SEM from at-least two independent experiments, SEM, read-out: K D, binding affinity (kinetic KD) measured as a ratio of koff/kon
[5] = Biacore T200, eIF4E on CM5 chip, m7GTP, HBS-EP+ with 1 mM DTT, 3% DMSO, mean ± SEM from at-least two independent experiments, SEM, read-out: k off
[6] = mean ± SEM from at-least two independent experiments, SEM
[7] = mean ± SEM from at-least two independent experiments
[8] = Biacore T200, HBS-EP+ with 1 mM DTT, 3% DMSO, mean ± SEM from at-least two independent experiments, SEM
[9] = Biacore T200, eIF4E on CM5 chip, m7GTP, HBS-EP+ with 1 mM DTT, 3% DMSO, mean ± SEM from at-least two independent experiments, SEM
[10] = Biacore T200, eIF4E on CM5 chip, m7GTP, HBS-EP+ with 1 mM DTT, 3% DMSO, mean ± SEM from at-least two independent experiments, read-out: K D, binding affinity (kinetic KD) measured as a ratio of koff/kon

kon [1, 3]	Kd [1, 4]	koff [1, 5]	RT, Residence Time measured as 1/koff [1, 6]	RT, Residence Time measured as 1/koff [1, 7]	kon [1, 8]	K D, binding affinity (kinetic KD) measured as a ratio of koff/kon [1, 9]	koff [1, 9]	Compound	other results
420000 ± 1.9e+10 M⁻¹ s⁻¹	397 ± 131 nM	0.14 ± 0.002 s⁻¹	7.1 ± 1.0 s	–	–	–	–	CC(=O)N[C@@H](CCCNC(=N)N)C(=O)N[C@@H](Cc1ccc(O)cc1)C(=O)N[C@@H](CO)C(=O)N[C@@H](CCCNC(=N)N)C(=O)NC1(C)CCCC=CCCCC(C)(C(=O)N[C@@H](Cc2ccccc2)C(N)=O)NC(=O)[C@H](CC(C)C)NC(=O)[C@H](CC(C)C)NC(=O)[C@H](CCC(N)=O)NC1=O (some centres unmarked) [sTIP-12] (Ac-RYSR[ξαMeNle(6-ylidene)]QLL[ξαMeNle(6-ylidene)]F-NH2; staple 5-9)	–
2.2e+06 ± 3e+11 M⁻¹ s⁻¹	7.8 ± 1.9 nM	0.016 ± 3e-05 s⁻¹	68.8 ± 13.8 s	68 s	–	–	–	CC(=O)N[C@@H](CCCCN)C(=O)N[C@@H](CCCCN)C(=O)N[C@@H](CCCNC(=N)N)C(=O)N[C@@H](Cc1ccc(O)cc1)C(=O)N[C@@H](CO)C(=O)N[C@@H](CCCNC(=N)N)C(=O)N[C@@]1(C)CCCC=CCCC[C@@](C)(C(=O)N[C@@H](Cc2ccccc2)C(=O)N[C@@H](CCCNC(=N)N)C(=O)N[C@@H](CCCNC(=N)N)C(=O)N[C@@H](CCCNC(=N)N)C(N)=O)NC(=O)[C@H](CC(C)C)NC(=O)[C@H](CC(C)C)NC(=O)[C@H](CCC(N)=O)NC1=O [sTIP-09] (Ac-KKRYSR[S5]QLL[S5]FRRR-NH2; staple 7-11)	–
–	–	–	–	–	–	–	–	O=C(O)C(Cc1ccccc1[N+](=O)[O-])=NNc1nc(-c2ccc(Cl)c(Cl)c2)cs1 (mixture of isomers) [Peptide 4EGI-1, 4EGI-1]	Affinity for eIF4E [2]: micromolar range
–	–	–	35.5 ± 1.3 s	–	6.2 ± 0.2 × 10^5 M^–1 s^–1	45.2 ± 0.6 nM	2.8 ± 0.1 × 10^–2 s^–1	Ac-RIIYSR*QLL*L&-NH2 (sidechain bridge or staple) [sTIP-08, 13mer stapled-peptide, sTIP-06 extended with Lys(ButPhI)]	–
340000 ± 1.6e+10 M⁻¹ s⁻¹	195 ± 49.7 nM	0.058 ± 0.00014 s⁻¹	18.3 ± 4.5 s	–	–	–	–	CC(=O)N[C@@H](CCCNC(=N)N)C(=O)N[C@@H](Cc1ccc(O)cc1)C(=O)N[C@@H](CO)C(=O)N[C@@H](CCCNC(=N)N)C(=O)N[C@@]1(C)CCCC=CCCC[C@@](C)(C(=O)N[C@@H](CC(C)C)C(=O)N[C@@H](Cc2ccccc2)C(=O)N[C@@H](CCCNC(=N)N)C(N)=O)NC(=O)[C@H](CC(C)C)NC(=O)[C@H](CC(C)C)NC(=O)[C@H](CCC(N)=O)NC1=O [sTIP-14] (Ac-RYSR[S5]QLL[S5]LFR-NH2; staple 5-9)	Improvement in KD over sTIP-12 ([1]; relative to sTIP-12): 2 fold; Reduction in rate of dissociation (koff) over sTIP-12 ([1]; relative to sTIP-12): 2 fold
6.6e+06 ± 1e+11 M⁻¹ s⁻¹	4.3 ± 0.4 nM	0.026 ± 5e-05 s⁻¹	39.7 ± 3.1 s	39 s	–	–	–	CC(=O)N[C@@H](CCCCN)C(=O)N[C@@H](CCCCN)C(=O)N[C@@H](CCCNC(=N)N)C(=O)N[C@@H](Cc1ccc(O)cc1)C(=O)N[C@@H](CO)C(=O)N[C@@H](CCCNC(=N)N)C(=O)N[C@@H](CCC(=O)O)C(=O)N[C@@H](CCC(N)=O)C(=O)N[C@@H](CC(C)C)C(=O)N[C@@H](CC(C)C)C(=O)N[C@@]1(C)CCCC=CCCC[C@@](C)(C(N)=O)NC(=O)[C@H](CCCNC(=N)N)NC(=O)[C@H](CCC(N)=O)NC(=O)[C@H](Cc2ccccc2)NC1=O [sTIP-10] (Ac-KKRYSREQLL[S5]FQR[S5]-NH2; staple 11-15)	–
–	–	–	2.3 ± 0.6 s	–	2.3 ± 0.9 × 10^7 M^–1 s^–1	21.9 ± 3.8 nM	4.6 ± 1.2 × 10^–1 s^–1	Ac-KRYSR*QLL*F-NH2 (sidechain bridge or staple) [sTIP-11, sTIP-05 with K1 deleted]	Binding to eIF4E in words (effect of N-terminal deletion from sTIP-05) ([1]; sequential deletion of the 1KKR3 sequence): little effect on binding
–	–	–	–	–	–	–	–	O=C(O)c1ccc(N2C(=O)/C(=C\c3ccc(-c4ccc([N+](=O)[O-])cc4)o3)C=C2c2ccccc2)cc1 [Peptide 4E1RCat, 4E1RCat]	Affinity for eIF4E [2]: micromolar range
1.5e+07 M⁻¹ s⁻¹	6.6 ± 0.7 nM	0.094 ± 8e-05 s⁻¹	10.8 ± 0.9 s	10 s	–	–	–	CC(=O)N[C@@H](CCCCN)C(=O)N[C@@H](CCCCN)C(=O)N[C@@H](CCCNC(=N)N)C(=O)N[C@@H](Cc1ccc(O)cc1)C(=O)N[C@@H](CO)C(=O)N[C@@H](CCCNC(=N)N)C(=O)N[C@]1(C)CCCC=CCCC[C@](C)(C(=O)N[C@@H](Cc2ccccc2)C(N)=O)NC(=O)[C@H](CC(C)C)NC(=O)[C@H](CC(C)C)NC(=O)[C@H](CCC(N)=O)NC1=O [sTIP-05] (Ac-KKRYSR[R5]QLL[R5]F-NH2; staple 7-11)	–
–	–	–	–	–	–	–	–	CC(=O)N[C@@H](Cc1ccc(O)cc1)C(=O)N[C@@H](CO)C(=O)N[C@@H](CCCNC(=N)N)C(=O)NC1(C)CCCC=CCCCC(C)(C(=O)N[C@@H](Cc2ccccc2)C(N)=O)NC(=O)[C@H](CC(C)C)NC(=O)[C@H](CC(C)C)NC(=O)[C@H](CCC(N)=O)NC1=O (some centres unmarked) [sTIP-13] (Ac-YSR[ξαMeNle(6-ylidene)]QLL[ξαMeNle(6-ylidene)]F-NH2; staple 4-8)	Kd ([1]; Binding affinity estimated (micromolar range), range over two independent experiments): 4000 to 36000 nM; Kd ([1]; sensogram traces Fig. S2 E, F, experiment 1, read-out: Binding affinity estimated, first of two independent SPR experiments): 4000 nM; Kd ([1]; sensogram traces Fig. S2 E, F, experiment 2, read-out: Binding affinity estimated, second of two independent SPR experiments): 36000 nM
–	–	–	6.0 ± 2.4 s	6 s	2.7 ± 0.7 × 10^8 M^–1 s^–1	0.8 ± 0.1 nM	2.2 ± 0.8 × 10^–1 s^–1	Ac-RIIYSR*QLL*L-NH2 (sidechain bridge or staple) [sTIP-06]	Kd [1, 10]: 0.8 nM
–	–	–	6.7 ± 4.1 s	–	4.2 ± 2.3 × 10^6 M^–1 s^–1	54.8 ± 6.4 nM	2.4 ± 1.5 × 10^–1 s^–1	Ac-RYSREQLL*FQR*-NH2 (sidechain bridge or staple) [sTIP-15]	Kd [1, 10]: 54 nM; Improvement in KD over sTIP-12 ([1]; relative to sTIP-12): 7 fold; Improvement in rate of association (kon) over sTIP-12 ([1]; relative to sTIP-12): 10 fold
650000 ± 3e+09 M⁻¹ s⁻¹	42.5 ± 0.5 nM	0.028 ± 1e-05 s⁻¹	36.3 ± 1.0 s	–	–	–	–	CC(=O)N[C@@H](CCCCN)C(=O)N[C@@H](CCCCN)C(=O)N[C@@H](CCCNC(=N)N)C(=O)N[C@@H](Cc1ccc(O)cc1)C(=O)N[C@@H](CO)C(=O)N[C@@H](CCCNC(=N)N)C(=O)N[C@@]1(C)CCCC=CCCC[C@@](C)(C(=O)N[C@@H](Cc2ccccc2)C(=O)N[C@@H](Cc2c[nH]c3ccccc23)C(N)=O)NC(=O)[C@H](CC(C)C)NC(=O)[C@H](CC(C)C)NC(=O)[C@H](CCC(N)=O)NC1=O [sTIP-07] (Ac-KKRYSR[S5]QLL[S5]FW-NH2; staple 7-11)	–
